Results taken from ChEMBL document CHEMBL6182924, “Discovery of a Novel and Potent MET Transcription Inhibitor Targeting Promoter G-Quadruplex for the Treatment of NSCLC” (J Med Chem, 2025).
Active and inactive are the calls of the source. No cut-off for these calls is given here.

Assays:
NCI-H1975 [1] = assay: Induction of apoptosis in human NCI-H1975 cells assessed as necrotic cells at 2 uM incubated for 24 hrs by Annexin V-FITC/PI staining based flow cytometry analysis (reference value: 7.33 %); format: functional
A549 [2] = assay: Induction of cell cycle arrest in human A549 cells assessed as accumulation of cells at G1 phase at 1 uM measured for 24 hrs by PI/Rnase staining based flow cytometry (reference value: 75.2 %); format: functional
A549 [3] = assay: Downregulation of c-Met mRNA expression in human A549 cells at 0.5 to 1 uM incubated for 24 hrs by qRT-PCR analysis; format: functional, cell-based; conditions: dose 0.5-1 µM
NCI-H1975 [4] = assay: Induction of apoptosis in human NCI-H1975 cells assessed as early apoptotic cells at 2 uM incubated for 24 hrs by Annexin V-FITC/PI staining based flow cytometry analysis (reference value: 0.35 %); format: functional
A549 [5] = assay: Induction of cell cycle arrest in human A549 cells assessed as accumulation of cells at G1 phase at 2 uM measured for 24 hrs by PI/Rnase staining based flow cytometry (reference value: 75.2 %); format: functional
NCI-H1975 [6] = assay: Induction of apoptosis in human NCI-H1975 cells assessed as viable cells at 0.5 uM incubated for 24 hrs by Annexin V-FITC/PI staining based flow cytometry analysis (reference value: 90.1 %); format: functional; conditions: read-out: Activity
[7] = Acute toxicity in Sprague-Dawley rat at 500 to 2000 mg/kg, po measured every 2 days; format: organism-based; conditions: in vivo, 48 h, dose 500-2000 mg/kg, time 2 day
A549 [8] = assay: Inhibition of c-MET expression in human A549 cells up to 2000 nM by Western blot analysis; format: functional, cell-based
BaF3 = assay: Antiproliferative activity against mouse BaF3 cells harboring TPR-MET D1228N mutant incubated for 24 hrs by CCK-8 assay; format: functional, cell-based; conditions: BaF3, 24 h
NCI-H1975 [9] = assay: Induction of apoptosis in human NCI-H1975 cells assessed as necrotic cells at 1 uM incubated for 24 hrs by Annexin V-FITC/PI staining based flow cytometry analysis (reference value: 7.33 %); format: functional
NCI-H1975 [10] = assay: Antiproliferative activity against human NCI-H1975 cells assessed as inhibition of cell growth incubated for 3 days by CCK-8 assay; format: functional, cell-based; conditions: time 3.0 day
[11] = Toxicity in BALB/c mouse xenografted with human A549 cells assessed as kidney damage at 40 mg/kg, po administered once a day and measured after 20 days by H and E staining based analysis; format: organism-based; conditions: in vivo, 480 h, time 20 day
A549 [12] = assay: Induction of apoptosis in human A549 cells assessed as late apoptotic cells at 0.5 uM incubated for 24 hrs by Annexin V-FITC/PI staining based flow cytometry analysis (reference value: 2.56 %); format: functional
[13] = Acute toxicity in Sprague-Dawley rat assessed as lung damage at 500 to 2000 mg/kg, po measured every 2 days by H and E staining based analysis; format: organism-based; conditions: in vivo, 48 h, dose 500-2000 mg/kg, time 2 day
A549 [14] = assay: Antitumor activity against human A549 cells xenografted in BALB/c mouse assessed as tumor growth inhibition at 20 mg/kg, ip administered once a day and measured up to 24 days; format: functional; conditions: A549, 576 h, time <= 24 day, read-out: TGI
NCI-H1975 [15] = assay: Induction of apoptosis in human NCI-H1975 cells assessed as late apoptotic cells at 2 uM incubated for 24 hrs by Annexin V-FITC/PI staining based flow cytometry analysis (reference value: 2.27 %); format: functional
A549 [16] = assay: Inhibition of cell migration in human A549 cells incubated for 12 hrs by crystal violet staining based analysis; format: functional; conditions: dose 0.5-2 µM
[17] = Acute toxicity in Sprague-Dawley rat assessed as heart damage at 500 to 2000 mg/kg, po measured every 2 days by H and E staining based analysis; format: organism-based; conditions: in vivo, 48 h, dose 500-2000 mg/kg, time 2 day
NCI-H1975 [18] = assay: Induction of cell cycle arrest in human NCI-H1975 cells assessed as accumulation of cells at G2 phase at 0.5 uM measured for 24 hrs by PI/Rnase staining based flow cytometry (reference value: 14.8 %); format: functional
A549 [19] = assay: Inhibition of cell invasion in human A549 cells incubated for 12 hrs; format: functional, cell-based; conditions: dose 0.5-2 µM
[20] = Toxicity in BALB/c mouse xenografted with human A549 cells assessed as heart damage at 20 mg/kg, po administered once a day and measured after 20 days by H and E staining based analysis; format: organism-based; conditions: in vivo, 480 h, time 20 day
A549 [21] = assay: Induction of apoptosis in human A549 cells assessed as early apoptotic cells at 0.5 uM incubated for 24 hrs by Annexin V-FITC/PI staining based flow cytometry analysis (reference value: 1.73 %); format: functional
A549 [22] = assay: Antitumor activity against human A549 cells xenografted in BALB/c mouse assessed as tumor growth inhibition at 40 mg/kg, po administered once a day and measured up to 24 days; format: functional; conditions: A549, 576 h, time <= 24 day, read-out: TGI
NCI-H1975 [23] = assay: Induction of cell cycle arrest in human NCI-H1975 cells assessed as accumulation of cells at G1 phase at 2 uM measured for 24 hrs by PI/Rnase staining based flow cytometry (reference value: 79.2 %); format: functional
A549 [24] = assay: Antitumor activity against human A549 cells xenografted in BALB/c mouse assessed as downregulation of AKT expression in tumor at 20 mg/kg, po administered once a day and measured for 20 days by Western blot analysis; format: functional, organism-based; conditions: time 20.0 day
[25] = Acute toxicity in Sprague-Dawley rat assessed as liver damage at 500 to 2000 mg/kg, po measured every 2 days by H and E staining based analysis; format: organism-based; conditions: in vivo, 48 h, dose 500-2000 mg/kg, time 2 day
A549 [26] = assay: Downregulation of c-Met expression in human A549 cells incubated for 72 hrs by Western blot analysis; format: functional, cell-based; conditions: dose <= 1000.0 nM
A549 [27] = assay: Induction of apoptosis in human A549 cells assessed as early apoptotic cells at 2 uM incubated for 24 hrs by Annexin V-FITC/PI staining based flow cytometry analysis (reference value: 1.73 %); format: functional
[28] = Toxicity in BALB/c mouse xenografted with human A549 cells assessed as body weight loss at 20 mg/kg, po administered once a day and measured after 20 days; format: organism-based; conditions: in vivo, 480 h, time 20 day
[29] = Acute toxicity in Sprague-Dawley rat assessed as kidney damage at 500 to 2000 mg/kg, po measured every 2 days by H and E staining based analysis; format: organism-based; conditions: in vivo, 48 h, dose 500-2000 mg/kg, time 2 day
A549 [30] = assay: Antiproliferative activity against human A549 cells assessed as inhibition of cell growth incubated for 3 days by CCK-8 assay; format: functional, cell-based; conditions: time 3.0 day
[31] = Toxicity in BALB/c mouse xenografted with human A549 cells assessed as liver damage at 40 mg/kg, po administered once a day and measured after 20 days by H and E staining based analysis; format: organism-based; conditions: in vivo, 480 h, time 20 day
NCI-H1975 [32] = assay: Antiproliferative activity against MET knockdown human NCI-H1975 cells assessed as inhibition of cell growth by CCK-8 assay; format: functional, cell-based
[33] = Toxicity in BALB/c mouse xenografted with human A549 cells assessed as lung damage at 40 mg/kg, po administered once a day and measured after 20 days by H and E staining based analysis; format: organism-based; conditions: in vivo, 480 h, time 20 day
NCI-H1975 [34] = assay: Downregulation of c-Met expression in human NCI-H1975 cells incubated for 72 hrs by Western blot analysis; format: functional, cell-based; conditions: dose <= 1000.0 nM
[35] = Acute toxicity in Sprague-Dawley rat assessed as spleen damage at 500 to 2000 mg/kg, po measured every 2 days by H and E staining based analysis; format: organism-based; conditions: in vivo, 48 h, dose 500-2000 mg/kg, time 2 day

COc1cccc(-c2ccc(-c3nc4c5cccnc5c5ncccc5c4[nH]3)o2)c1
Activity (NCI-H1975 [1]): 3.94% | Activity (A549 [2]): 77.2% | Activity (A549 [3]): Active | Activity (NCI-H1975 [4]): 2.21% | Activity (A549 [5]): 83.9% | viability at 0.5 µM (NCI-H1975 [6]): 85.1% | Activity [7]: Non-toxic | inhibition (A549 [8]): Active | IC50 (BaF3): 400 nM | Activity (NCI-H1975 [9]): 4.06% | Activity (NCI-H1975 [10]): Active | Activity [11]: Non-toxic | Activity (A549 [12]): 7.9% | Activity [13]: Non-toxic | inhibition in vivo at 20 mg/kg (A549 [14]): 55.6% | Activity (NCI-H1975 [15]): 14.2% | inhibition (A549 [16]): Dose-dependent-effect | Activity [17]: Non-toxic | Activity (NCI-H1975 [18]): 13% | inhibition (A549 [19]): Dose-dependent-effect | Activity [20]: Non-toxic | Activity (A549 [21]): 5.09% | inhibition in vivo at 40 mg/kg (A549 [22]): 62.4% | Activity (NCI-H1975 [23]): 84.2% | Activity (A549 [24]): Active | Activity [25]: Non-toxic | Activity (A549 [26]): Dose-dependent-effect | Activity (A549 [27]): 12.2% | Activity [28]: Non-toxic | Activity [29]: Non-toxic | Activity (A549 [30]): Active | Activity [31]: Non-toxic | Activity (NCI-H1975 [32]): Active | Activity [33]: Non-toxic | Activity (NCI-H1975 [34]): Dose-dependent-effect | Activity [35]: Non-toxic
